# In patent US11141462B2, “Method for the treatment or prevention of osteoarthritis” (Chondropeptix B.V., priority 2016, dated 2021):
# System: OA articular chondrocytes
# Assay: OA chondrocyte phenotype gene expression screening of BMP-7 peptides (RT-qPCR)
# Type: cell-based, human
# Design: key to COX-2 / COL2A1 / SOX9: [+] denotes a significantly increased expression of chondrogenic marker genes SOX9 and COL2A1, or a significantly decreased expression of OA phenotypic marker COX-2 in OA articular chondrocytes, in comparison to untreated OA articular chondrocytes; key to IL-6 / ADAMTS5 / COL10A / BAPX1/NKX3.2 / ALP / RUNX2: —: [-] denotes the absence of a significant effect or a significantly decreased expression of chondrogenic marker genes BAPX1/NKX3.2, or a significantly increased expression of OA phenotypic markers IL-6, ADAMTS5, COL10A, ALP and RUNX2 in OA articular chondrocytes, in comparison to untreated OA articular chondrocytes
# Settings: for suppression of the OA chondrocyte phenotype: independent of the tested concentration (1000, 100, 10 and 1 nM were tested); for COL2A1 / COX-2 / SOX9: Table 5; for activity in the assays as employed herein (table 2): peptides with additional amino acid N-terminal of position 100
# Protocol: (§1) FIG. 2: The action of 20-mer peptides (10 nM) of SEQ ID NO: 2-17 (peptides with 1 or 2 amino acids intervals (18-19 amino acid overlap)) and a random peptide with a sequence according to SEQ ID NO: 49 on the expression of ADAMTS5 was determined on a validated pool of passage 2 OA human articular chondrocytes (n=18) and compared to full-length recombinant BMP-7 (1 nM). Samples were harvested after 24 hours and analyzed for indicated genes by RT-qPCR (normalized for 28S rRNA expression and relative to control conditions (no peptide exposure)). In the graphs, numbers on the x-axis represent individual peptides according to their SEQ ID NO's, error bars represent mean±SEM, statistical differences were calculated (one-way ANOVA with bonferroni correction) to control condition. *=p<0.05 lower than control condition for ADAMTS5. Random peptide is a peptide according to SEQ ID NO: 49.
# as §1, with “3:” for “2:”, “ALP” for “ADAMTS5”, “ALP.” for “ADAMTS5.”
# as §1, with “4:” for “2:”, “BAPX1/NKX3.2” for “ADAMTS5”, “BAPX1/NKX3.2.” for “ADAMTS5.”
# as §1, with “5:” for “2:”, “COL10A1” for “ADAMTS5”, “COL10A1.” for “ADAMTS5.”
# FIG. 6: The action of 20-mer peptides (10 nM) of SEQ ID NO: 2-17 (peptides with 1 or 2 amino acids intervals (18-19 amino acid overlap)) and a random peptide with a sequence according to SEQ ID NO: 49 on the expression of IL-6 was determined on a validated pool of passage 2 OA human articular chondrocytes (n=18) and compared to full-length recombinant BMP-7 (1 nM). […]
# [1] = Table 2 (FIG. 2: 10 nM, 24 hours, RT-qPCR, 28S rRNA normalized), vs untreated OA articular chondrocytes
# [2] = Table 2 (FIG. 3: 10 nM, 24 hours, RT-qPCR, 28S rRNA normalized), vs untreated OA articular chondrocytes
# [3] = Table 2 (FIG. 4: 10 nM, 24 hours, RT-qPCR, 28S rRNA normalized), vs untreated OA articular chondrocytes
# [4] = Table 2 (FIG. 5: 10 nM, 24 hours, RT-qPCR, 28S rRNA normalized), vs untreated OA articular chondrocytes
# [5] = Table 2 (FIG. 6: 10 nM, 24 hours, RT-qPCR, 28S rRNA normalized), vs untreated OA articular chondrocytes
# [6] = Table 2 (FIG. 7: 10 nM, 24 hours, RT-qPCR, 28S rRNA normalized), vs untreated OA articular chondrocytes
# [7] = gene expression in OA articular chondrocytes vs untreated
# [8] = Table 1, gene expression in OA articular chondrocytes vs untreated
Substance,suppression of the OA chondrocyte phenotype,ADAMTS5 [1],ALP [2],BAPX1/NKX3.2 [3],COL10A [4],IL-6 [5],RUNX2 [6],further results
APTQLNAISVLYFDDSSNVI (listed as Homo sapiens) [SEQ ID NO: 9],efficiently suppressed the OA chondrocyte phenotype,,,,,,,
4 (ETVPKPSSAPTQLNAISVLY; listed as Homo sapiens) [compound 4],,—,—,—,—,—,—,
15 (FDDSSNVILKKYRNMVVRAS; listed as Homo sapiens) [compound 15],,+,+,+,+,+,—,COL2A1 [7]: +; COX-2 [7]: +; SOX9 [7]: +
18 (PKPSSAPTQLNAISVLYFDDSSNVILKKYRNMVVRASGSH; listed as Homo sapiens) [compound 18],,+,+,+,+,+,+,
22 (DLGWQDWIIAPEGYAAYYCE; listed as Homo sapiens) [compound 22],,,,,,,,ADAMTS5 [8]: —; ALP [8]: —; BAPX1/NKX3.2 [8]: —; COL10A [8]: —; IL-6 [8]: —; RUNX2 [8]: —
SSAPTQLNAISVLYFDDSSN (listed as Homo sapiens) [SEQ ID NO: 8],efficiently suppressed the OA chondrocyte phenotype,,,,,,,
23 (CEGECAFPLNSYMNATNHAI; listed as Homo sapiens) [compound 23],,,,,,,,ADAMTS5 [8]: —; ALP [8]: —; BAPX1/NKX3.2 [8]: —; COL10A [8]: —; IL-6 [8]: —; RUNX2 [8]: —
9 (APTQLNAISVLYFDDSSNVI; listed as Homo sapiens) [compound 9],,+,+,+,-,+,+,COL2A1 [7]: +; COX-2 [7]: +; SOX9 [7]: +
13 (SVLYFDDSSNVILKKYRNMV; listed as Homo sapiens) [compound 13],,+,+,+,+,+,+,COL2A1 [7]: +; COX-2 [7]: +; SOX9 [7]: +
SSNVILKKYRNMVVRASGSH (listed as Homo sapiens) [SEQ ID NO: 17],efficiently suppressed the OA chondrocyte phenotype,,,,,,,
1 (FINPETVPKPSSAPTQLNAISVLYFDDSSNVILKKYRNMVVRASGSH; listed as Homo sapiens) [compound 1],,—,—,—,—,—,—,
PKPSSAPTQLNAISVLYFDD (listed as Homo sapiens) [SEQ ID NO: 6],efficiently suppressed the OA chondrocyte phenotype,,,,,,,
KPSSAPTQLNAISVLYFDDS (listed as Homo sapiens) [SEQ ID NO: 7],efficiently suppressed the OA chondrocyte phenotype,,,,,,,
2 (FINPETVPKPSSAPTQLNAI; listed as Homo sapiens) [compound 2],,—,—,—,—,—,—,
FDDSSNVILKKYRNMVVRAS (listed as Homo sapiens) [SEQ ID NO: 15],efficiently suppressed the OA chondrocyte phenotype,,,,,,,
LYFDDSSNVILKKYRNMVVR (listed as Homo sapiens) [SEQ ID NO: 14],efficiently suppressed the OA chondrocyte phenotype,,,,,,,
11 (LNAISVLYFDDSSNVILKKY; listed as Homo sapiens) [compound 11],,+,+,+,+,+,+,COL2A1 [7]: +; COX-2 [7]: +; SOX9 [7]: +
NPETVPKPSSAPTQLNAISV (listed as Homo sapiens) [SEQ ID NO: 3],,,,,,,,activity in the assays as employed herein (table 2): lost its activity
12 (AISVLYFDDSSNVILKKYRN; listed as Homo sapiens) [compound 12],,+,+,+,+,+,+,COL2A1 [7]: +; COX-2 [7]: +; SOX9 [7]: +
5 (VPKPSSAPTQLNAISVLYFD; listed as Homo sapiens) [compound 5],,—,—,—,—,—,+,
7 (KPSSAPTQLNAISVLYFDDS; listed as Homo sapiens) [compound 7],,+,+,+,+,+,+,COL2A1 [7]: +; COX-2 [7]: +; SOX9 [7]: +
21 (SSDQRQACKKHELYVSFRDL; listed as Homo sapiens) [compound 21],,,,,,,,ADAMTS5 [8]: —; ALP [8]: —; BAPX1/NKX3.2 [8]: —; COL10A [8]: —; IL-6 [8]: —; RUNX2 [8]: —
AISVLYFDDSSNVILKKYRN (listed as Homo sapiens) [SEQ ID NO: 12],efficiently suppressed the OA chondrocyte phenotype,,,,,,,
ETVPKPSSAPTQLNAISVLY (listed as Homo sapiens) [SEQ ID NO: 4],,,,,,,,activity in the assays as employed herein (table 2): lost its activity
26 (SSNVILKKYRNMVVRACGCH; listed as Homo sapiens) [compound 26],,,,,,,,ADAMTS5 [8]: —; ALP [8]: —; BAPX1/NKX3.2 [8]: —; COL10A [8]: —; IL-6 [8]: —; RUNX2 [8]: —
FINPETVPKPSSAPTQLNAI (listed as Homo sapiens) [SEQ ID NO: 2],,,,,,,,activity in the assays as employed herein (table 2): lost its activity
